Columns and labels:
[1] = system: B19 empty capsids; assay: Hemagglutination inhibition assay (HAI); assay type: binding, parvovirus B19; details: for HAI titer: Purified glycosphingolipid, 1 mg/ml in saline, 4-8 HA50 units of virus capsid
From the text: (§1) The B19 parvovirus receptor was identified utilizing a hemagglutination (HA) assay as described in Brown and Cohen (1992). Briefly, the ability of B19 to hemagglutinate human red cells was utilized to evaluate the ability of certain compounds to inhibit agglutination in the assay. Cellular components from red cell membranes were fractionated and their reactivity evaluated in the HA assay. Lipid extraction and purification of glycolipid fractions followed by evaluation in the HA assay identified the glycosphingolipid, globoside, as the cellular receptor for B19. Further, biochemical characterization and HA evaluation identified the polysaccharide GalNAc(β,3-3)Gal(α1-4)Gal(β,1-4)Glc as the specific binding domain for B19. […] Antibodies specific for globoside were also utilized in the assay to block infectivity to verify that globoside was the receptor.
To identify the B19 cellular receptor, the ability of B19 to agglutinate red cells and B19 infectivity assays were used as measures of viral binding. It had been previously shown that B19 parvovirus empty capsids (S. Kajigaya et al. (1991)) agglutinate human red cells Brown and Cohen (1992)), and we tested the ability of membrane extracts from different cell types to block B19 binding in the hemagglutination assay (HA). Membrane extracts were prepared using 10 mM CHAPS (3-[(3cholamidopropyl)-dimethylammonio]-1-propanesulfonate) to solubilize proteins and lipids.
Table 2. Human erythrocyte ghosts (J. T. Dodge, et al (1963)) were treate
with 10 mM CHAPS, the solubilized extract incubated with agarose
immobilized enzymes overnight at 37° C. and the supernatant tested
in a hemagglutination inhibition assay (HAI). Purified glycosphingolipids
(Sigma or BioCarb Chemicals) were dissolved in saline and tested by HAI
using 4-8 HA50 units of virus capsid. (In the table, CTH is ceramide
trihexoside and the HAI titer is the dilution required to reduce the HA t
Table 3. Hemagglutination inhibition (HAI) titers red cell lipid
fractionated on different columns. Lipid was extracted from red cell
ghosts (9,12) and fractionated on either a silica gel or
DEAEcellulose-acetate column (13). Organic solvents were removed by
evaporation and salts removed by dialysis against water and
lyophilization. The residual pellets were resuspended in saline and teste
in the hemagglutination assay.

[2] = system: B19 virus; assay: Erythroid progenitor assay (CFU-E in methylcellulose) for B19 infection; assay type: cell-based, parvovirus B19; details: for Blocking of B19 cytotoxicity to CFU-E: B19 virus preincubated with globoceramide two hours, then bone marrow mononuclear cells two hours, CFU-E counted seven days later
Description: To establish the biological relevance of binding of virus to P antigen, globoceramides were tested for their ability to block vital infection of permissive cells, using the erythroid progenitor assay (P. P. Mortimer et al. (1983)). Parvovirus B19 is highly toxic to the production of erythroid colonies from late erythroid progenitors (CFU-E) in methylcellulose culture, and this system was used as an assay for B19 infection. In the study, binding of B19 antigen to P antigen was shown by competition of infection using globoside or monoclonal antibody to P antigen. First, B19 virus was preincubated with different globoceramides, e.g., lactosyl, triosyl, and Forssman (Sigma or BioCarb Chemicals) and with different globoside concentrations for two hours, and then mixed with bone marrow mononuclear cells for a further two hours. […] Second, mouse monoclonal antibodies to P-antigen (A. E. yon dem Borne et al. (1986)) or P1 or p^k (BioCarb Chemicals) were diluted 1:100 and incubated with bone marrow mononuclear cells for two hours. Purified B19 virus as above was added for a further two hours. The cell mixtures were plated in methylcellulose (P. Mortimer et al. (1983)) and CFU-E counted seven days later. […] There was no protection with similar antibodies against P1 or p^k.

[3] = system: B19 empty capsids; assay: Binding of viral capsids to glycosphingolipids by thin layer chromatography; parameters: species or system parvovirus B19; details: 1 ug of purified glycosphingolipid on silica plate
Description: Red cells from individuals with different blood group P system phenotypes were tested for their ability to agglutinate with parvovirus B19. Only cells containing P antigen hemagglutinated: P1 phenotype HA titer was 10,000; P2 phenotype HA titer was 5,000; P1^k and p phenotype were <200. […] Lipids were extracted from 0.2 mls packed red cells (H. Rose et al. (1965)) of patients with different P blood group phenotypes, dried and resuspended in 50 ul chloroform:methanol 1:1.20 ul of extract or 1 ug of each purified glycosphingolipid (Calbiochem) were applied to a silica plate (Merck) and chromatography performed with chloroform:methanol:water 65:25:4. Non-specific binding was blocked with 3% bovine albumin in phosphate buffered saline (16 hours) before the plates were sequentially incubated with B19 empty capsids, a human polyclonal anti-B19 serum, goat anti-human antibody conjugated with horse radish peroxidase, and developed with diaminobenzidene enhanced with cobalt chloride. The capsids bound to the globoside in P1 and P2 cells, and to purified globoside and Forssman antigen. B19 capsids and mouse monoclonal antibody to globoside (A. E. yon dem Borne et al. (1986)) bound to the same band on Western blotting of red cell extract, the putative "globoprotein" (Y. Tonegawa et al. (1977)).

[4] = system: human red cells; assay: Hemagglutination (HA) assay with reagent-treated erythrocytes and B19 empty capsids; assay type: cell-based; details: for Change in HA titer (log2): erythrocytes incubated with agent at 37° C.; for Effect of red cell treatment on binding of virus to the erythrocytes: human red cells treated with agent
From the text: as §1
In order to characterize the physical nature of the B19 receptor, human red cells were treated with a variety of agents and the change in hemagglutination (HA) titer measured (ICE. Brown et al. (1992)) (Table 1).
Table 1. Washed erythrocytes (0.5% v/v) were incubated at 37° C.
with the reagents, washed twice in saline and resuspended at 0.5%. The
cells were used in a standard hemagglutination assay using B19 empty
capsids produced in insect cells (Brown and Cohen (1992)) the end point
was 50% HA (1 HA50). In the table, therefore, an increasing the HA
titer (log2) by a factor of one reflects a doubling of the measured

Molecule: globotetraosylceramide [Globoside, P]
- Inhibition of hemagglutination by B19 [1]: inhibitory activity
- HAI titer [1]: 25600
- Blocking of B19 cytotoxicity to CFU-E [2]: completely blocked
- Relationship of concentration to ability to block infectivity of mononuclear cells with B19 virus ([2]; different globoside concentrations): positive linear relationship
- Binding of B19 capsids on thin layer chromatography plate [3]: bound

Molecule: [Na+].[O-][I+3]([O-])([O-])[O-] [NaIO4, sodium periodate]
- decrease in HA titer ([4]; High concentrations (10 mM)): > 4 log2
- Change in HA titer (log2) ([4]; time 15 min, final conc. 10 mM): < -4 log2
- Change in HA titer (log2) ([4]; time 20 hr, final conc. 5 uM): -1 log2
- Effect of red cell treatment on binding of virus to the erythrocytes [4]: markedly reduced binding

Molecule: globotriaosylceramide [CTH, P^k]
- HAI titer [1]: < 10
- Blocking of B19 cytotoxicity to CFU-E [2]: no effect

Molecule: Lactosyl ceramide
- HAI titer [1]: < 10
- Blocking of B19 cytotoxicity to CFU-E [2]: no effect

Molecule: O[C@H](CS)[C@H](O)CS (racemic) [Dithiothreitol]
- Change in HA titer (log2) ([4]; time 1 hr, final conc. 4 mM): 0 log2

Molecule: Trypsin
- Change in HA titer (log2) ([4]; time 1 hr, final conc. 0.2%): +4 log2
- Effect of red cell treatment on binding of virus to the erythrocytes [4]: increased binding

Molecule: C=O [Formaldehyde]
- Change in HA titer (log2) ([4]; time 1 hr, final conc. 0.2%): 0 log2

Molecule: OCCS [2-Mercaptoethanol]
- Change in HA titer (log2) ([4]; time 1 hr, final conc. 5 mM): 0 log2

Molecule: O=C(O)CN(CCN(CC(=O)O)CC(=O)O)CC(=O)O [EDTA]
- Change in HA titer (log2) ([4]; time 1 hr, final conc. 5 mM): 0 log2

From patent US5449608A, “Parvovirus B19 receptor and parvovirus B19 detection” (The United States of America as represented by the …, priority 1993, dated 1995)
